The values below come from patent US8106197B2, “Aminoheteroaryl compounds as protein kinase inhibitors” (Pfizer Inc., priority 2003, dated 2012).

This test has as its target T1, HGFR (Homo sapiens, UniProt P08581).
T1 construct: purchased Upstate 14-526
Description: HGFR continuous-coupled spectrophotometric assay. The note with it: for I(%): Table 3, Ki(μM) or I(%), test concentration not given; for inhibition at 0.05 µM: Table 5, percent c-MET inhibition at 50 nM. The format is biochemical.

Where [1] appears, read: Table 6, percent c-MET inhibition at 1 μM, read-out: % inhibition.

Like-named read-outs stand apart in the source and are kept apart here.

T1 sequence (P08581 974-1390 limits assumed): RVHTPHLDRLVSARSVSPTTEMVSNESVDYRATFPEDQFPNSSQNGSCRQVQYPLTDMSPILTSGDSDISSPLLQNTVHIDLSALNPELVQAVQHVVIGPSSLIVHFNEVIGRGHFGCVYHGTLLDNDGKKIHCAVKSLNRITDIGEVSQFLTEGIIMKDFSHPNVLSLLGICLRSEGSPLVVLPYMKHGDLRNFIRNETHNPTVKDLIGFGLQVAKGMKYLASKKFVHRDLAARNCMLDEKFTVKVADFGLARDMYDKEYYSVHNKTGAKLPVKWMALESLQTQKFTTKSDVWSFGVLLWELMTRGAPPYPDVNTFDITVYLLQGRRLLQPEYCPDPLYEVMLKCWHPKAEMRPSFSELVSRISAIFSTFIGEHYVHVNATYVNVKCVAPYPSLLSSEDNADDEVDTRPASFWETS

As usually defined, the inhibition is the change of the read-out against control, counted positive when it falls. With `Nc1ncc(C(=O)NCc2ccccc2Br)cc1OCc1c(Cl)cccc1Cl`, the inhibition at 1 µM under setting [1] stood at 36%. Take `C[C@@H]1CN(C(=O)c2ccc(-c3cnc4c(c3)OC(c3ccccc3)C(=O)N4)cc2)C[C@H](C)N1` (stereo partly drawn) [Example I-618, 7-(4-(3,5-Dimethyl-piperazine-1-carbonyl)-phenyl]-2-phenyl-4H-pyrido[3,2-b](1,4]oxazin-3-one]: the “I(%)” value turned out to be 0%. As for `Nc1ncc(-c2ccc(C(=O)N3CCC(N4CCCC4)CC3)cc2)cc1OCc1cccc(C(=O)NCc2cccnc2)c1`, the “% inhibition” value is “% inhibition = 14”.

Regarding `Nc1ncc(-c2ccc(C(=O)N3CCC(N4CCCC4)CC3)cc2)cc1OCc1nnsc1Cl`, the “% inhibition” value is “% inhibition = 10”. With `Nc1ncc(C(=O)N2CCC(C(=O)c3ccccc3)CC2)cc1OCc1c(Cl)cccc1Cl`, under setting [1], the inhibition at 1 µM was found to be 32%. As for `Cn1nc(-c2ccccc2)c(COc2cc(-c3ccc(C(=O)N4CCC(N5CCCC5)CC4)cc3)cnc2N)c1Cl`, the “% inhibition” value was “% inhibition = 63”.

With `CC(C)c1ccc(COc2cc(-c3ccc(C(=O)N4CCC(N5CCCC5)CC4)cc3)cnc2N)cc1`, the “% inhibition” value was “% inhibition = 32”. For the compound `Nc1ncc(-c2ccc(C(=O)N3CCC(N4CCCC4)CC3)cc2)cc1OCc1nc(NCCO)c2ccccc2n1`, the “% inhibition” value is “% inhibition = 7”. Regarding `Cc1ccc(-c2nnc(COc3cc(-c4ccc(C(=O)N5CCC(N6CCCC6)CC5)cc4)cnc3N)o2)cc1`, the “% inhibition” value is given as “% inhibition = 18”. Same read-out and setting: then `N#Cc1nc(COc2cc(-c3ccc(C(=O)N4CCC(N5CCCC5)CC4)cc3)cnc2N)cnc1N`, with “% inhibition = 9”. Consider `Cc1cc(C)c(C)c(COc2cc(-c3ccc(C(=O)N4CCC(N5CCCC5)CC4)cc3)cnc2N)c1C` [Example I-654, {4-[6-Amino-5-(2,3,5,6-tetramethyl-benzyloxy)-pyridin-3-yl]-phenyl)-(4-pyrrolidin-1-yl-piperidin-1-yl)-methanone], for which the “I(%)” value was 9%. As to `COc1ccc(C(NC(=O)c2cnc(N)c(OCc3c(Cl)cccc3Cl)c2)C2CC2)cc1` (stereo not drawn), the inhibition at 1 µM under setting [1] came to 27%. Regarding `CC(Oc1cc(-c2ccc(C(=O)NC[C@H](O)c3ccccc3)cc2)cnc1N)c1c(Cl)ccc(F)c1Cl` (stereo partly drawn), 0.05 µM produced 69% inhibition. `Nc1ncc(C(=O)NCCc2ccncc2)cc1OCc1c(Cl)cccc1Cl`: the inhibition at 1 µM under setting [1] amounted to 30%. Take `Nc1ncc(-c2ccc(C(=O)N3CCC(N4CCCC4)CC3)cc2)cc1OCc1cc(F)cc(C(F)(F)F)c1`: the “% inhibition” value is listed as “% inhibition = 12”. As to `N#CCCN1CCN(C(=O)c2cnc(N)c(OCc3c(Cl)cccc3Cl)c2)CC1`, under setting [1], the inhibition at 1 µM came out at 19%. In the case of `Nc1nc(COc2cc(-c3ccc(C(=O)N4CCC(N5CCCC5)CC4)cc3)cnc2N)nc(Nc2ccccc2)n1`, the “% inhibition” value was “% inhibition = 9”. As to `CCN(CC)CC1(O)CCN(C(=O)c2cnc(N)c(OCc3c(Cl)cccc3Cl)c2)CC1`, under setting [1], the inhibition at 1 µM was 71%. Still for that read-out and setting: then `Nc1ncc(C(=O)N2CCC(O)CC2)cc1OCc1c(Cl)cccc1Cl`, with 35%.

Take `Nc1ncc(-c2ccc(C(=O)N3CCC(N4CCCC4)CC3)cc2)cc1OCc1nc2ncccn2n1`: the “% inhibition” value is “% inhibition = 19”. On to `Nc1ncc(C(=O)N2CCN(CC(=O)N3CCCC3)CC2)cc1OCc1c(Cl)cccc1Cl`, for which, under setting [1], the inhibition at 1 µM worked out at 32%. Consider `Cc1cc(COc2cc(-c3ccc(C(=O)N4CCC(N5CCCC5)CC4)cc3)cnc2N)nc(-c2ccc(C(F)(F)F)cn2)n1`, for which the “% inhibition” value was “% inhibition = 8”. As for `Cc1cnc(CNC(=O)c2cnc(N)c(OCc3c(Cl)cccc3Cl)c2)cn1`, the inhibition at 1 µM under setting [1] stood at 33%.

On to `Nc1ncc(C(=O)N2CCC(Cc3ccc(F)cc3)CC2)cc1OCc1c(Cl)cccc1Cl`, for which the inhibition at 1 µM under setting [1] was 41%.

`Nc1ncc(-c2ccc(C(=O)N3CCC(N4CCCC4)CC3)cc2)cc1OCc1noc(-c2cccc(C(F)(F)F)c2)n1`: the “% inhibition” value is on record as “% inhibition = 27”. Consider `Nc1ncc(C(=O)N2CCC(CCO)CC2)cc1OCc1c(Cl)cccc1Cl`, for which the inhibition at 1 µM under setting [1] turned out to be 45%.

For `CC(Oc1cc(-c2nccn2C)cnc1N)c1c(Cl)ccc(F)c1Cl` (stereo not drawn) [Example I-652], the “I(%)” value was 11%. In the case of `Nc1ncc(C(=O)NCCc2c[nH]cn2)cc1OCc1c(Cl)cccc1Cl`, the inhibition at 1 µM under setting [1] was 29%. On to `Cn1nc(C2CC2)nc1COc1cc(-c2ccc(C(=O)N3CCC(N4CCCC4)CC3)cc2)cnc1N`, for which the “% inhibition” value was “% inhibition = 5”. In the case of `Nc1ncc(-c2ccc(C(=O)N3CCC(N4CCCC4)CC3)cc2)cc1OCc1ccc(C(=O)NCc2ccccn2)cc1`, the “% inhibition” value is “% inhibition = 7”. Take `Nc1ncc(C(=O)N2CCC(Cc3cccc(CO)c3)CC2)cc1OCc1c(Cl)cccc1Cl`: under setting [1], the inhibition at 1 µM amounted to 11%. Same read-out and setting: then `Nc1ncc(C(=O)N2CCCC(N3CCC(CO)CC3)CC2)cc1OCc1c(Cl)cccc1Cl` (stereo not drawn), with 20%; and `Nc1ncc(C(=O)NCc2cccc(OC(F)F)c2)cc1OCc1c(Cl)cccc1Cl`, with 32%. Take `Nc1ncc(-c2ccc(C(=O)N3CCC(N4CCCC4)CC3)cc2)cc1OCc1cccc(C(=O)NC2CCN(Cc3ccccc3)CC2)c1`: the “% inhibition” value is recorded as “% inhibition = 13”. Turning to `CCS(=O)(=O)N1CCN(C(=O)c2cnc(N)c(OCc3c(Cl)cccc3Cl)c2)CC1`, the inhibition at 1 µM under setting [1] stood at 22%. Regarding `N#Cc1ccc(COc2cc(-c3ccc(C(=O)N4CCC(N5CCCC5)CC4)cc3)cnc2N)cc1`, the “% inhibition” value was “% inhibition = 8”. Regarding `CC(Oc1cc(-c2ccc(C(=O)NC[C@H]3CCCO3)cc2)cnc1N)c1c(Cl)ccc(F)c1Cl` (stereo partly drawn), the inhibition at 0.05 µM was 60%. As for `CC1CN(C(=O)c2ccc(-c3cnc(N)c(OCc4c(Cl)cccc4Cl)c3)cc2)CC(C)N1` (stereo not drawn) [Example I-634, {4-[6-Amino-5-(2,6-dichloro-benzyloxy)-pyridin-3-yl]-phenyl}-(3,5-dimethyl-piperazin-1-yl)-methanone], the “I(%)” value amounted to 10%. Take `Nc1ncc(C(=O)N2CCC(O)(Cc3ccccc3)CC2)cc1OCc1c(Cl)cccc1Cl`: the inhibition at 1 µM under setting [1] was 62%. On the same count and under the same terms, then `Nc1ncc(C(=O)N2CCCC(Cc3ncccn3)C2)cc1OCc1c(Cl)cccc1Cl` (stereo not drawn), with 25%. Consider `Cn1nc(C(F)(F)F)c2cc(COc3cc(-c4ccc(C(=O)N5CCC(N6CCCC6)CC5)cc4)cnc3N)sc21`, for which the “% inhibition” value is “% inhibition = 14”. As to `Nc1ncc(C(=O)N2CCn3c(CO)nnc3C2)cc1OCc1c(Cl)cccc1Cl`, under setting [1], the inhibition at 1 µM worked out at 31%. As for `CC(Oc1cc(-c2ccc(C(=O)N3CCCC(C(N)=O)C3)cc2)cnc1N)c1c(Cl)ccc(F)c1Cl` (stereo not drawn), testing at 0.05 µM gave an inhibition of 84%. With `Nc1ncc(-c2ccc(C(=O)N3CCC(N4CCCC4)CC3)cc2)cc1OCc1cccc(C(=O)NC2CCN(Cc3ccccc3)C2)c1` (stereo not drawn), the “% inhibition” value is “% inhibition = 13”.

For the compound `CC(C)CCNC(=O)c1cnc(N)c(OCc2c(Cl)cccc2Cl)c1`, the inhibition at 1 µM under setting [1] stood at 26%.

On to `CN(CCC(O)c1ccccc1)C(=O)c1cnc(N)c(OCc2c(Cl)cccc2Cl)c1` (stereo not drawn), for which the inhibition at 1 µM under setting [1] amounted to 28%. With `CC(Oc1cc(-c2ccc(C(=O)N3CCCC(CO)C3)cc2)cnc1N)c1c(Cl)ccc(F)c1Cl` (stereo not drawn), the inhibition at 0.05 µM is 84%.

`CC(CN(C)C)NC(=O)c1cnc(N)c(OCc2c(Cl)cccc2Cl)c1` (stereo not drawn): the inhibition at 1 µM under setting [1] is 45%.

With `CC(O)CCNC(=O)c1cnc(N)c(OCc2c(Cl)cccc2Cl)c1` (stereo not drawn), the inhibition at 1 µM under setting [1] came to 35%. The same measure, in the same setting: then `Nc1ncc(C(=O)NCc2c(F)cccc2C(F)(F)F)cc1OCc1c(Cl)cccc1Cl`, with 33%. For the compound `Nc1ncc(C(=O)N2CCC(=O)CC2)cc1OCc1c(Cl)cccc1Cl`, the inhibition at 1 µM was 44%.
